According to article PMC7497626, “Ruthenium-Mediated ^18F-Fluorination and Preclinical Evaluation of a New CB1 Receptor Imaging Agent [^18F]FPATPP” (ACS Chemical Neuroscience, 2020):
Where two headings read alike, the source gives them in different places.

How the values were obtained:
[1] = Ex vivo biodistribution with [^18F]4; type: in vivo, mouse
Experimental: All in vivo animals (n = 6, 2 females) and additional 2 month old mice (n = 11, males, injected radioactivity 7.0 ± 3.0 MBq; injected mass 160 ± 60 ng, 6.2 ± 2.6 μg/kg) were used for ex vivo studies to examine the biodistribution and metabolism of [^18F]4. Thus, the injected dose and injected mass to all the animals used (n = 17) were 5.9 ± 2.8 MBq and 120 ± 70 ng, 4.6 ± 3.0 μg/kg, respectively. After iv injection of [^18F]4, mice were sacrificed in deep anesthesia of 4.0% isoflurane with cardiac puncture at 30 (n = 4), 60 (n = 2), and 120 min (in vivo animals, n = 6 and 2 month old mice n = 5). Organs were immediately dissected, weighed, and measured for ^18F-radioactivity in a 2480 Wizard Gamma Counter (Wallac PerkinElmer, Turku, Finland).
(§1) The specificity of [^18F]4 on mouse cerebral CB1Rs was examined in a 120 min in vivo study, and then, the same mice were used for ex vivo biodistribution and brain autoradiography studies. […] Control mice (n = 3, 1 female) were the given vehicle (90 μL, 10% EtOH in Kleptose β-cyclodextrin). […] Mice were sacrificed 120 min after iv injection of [^18F]4, and the ^18F-radioactivity distribution differences between pretreated and control mice were examined with in vivo PET imaging, ex vivo autoradiography, and 2480 Wizard Gamma Counter, and the data were analyzed as described in the previous sections.

mouse cerebral CB1Rs [2] = target: T1, mouse cerebral CB1Rs (Mus musculus, UniProt P47746); assay: In vivo dynamic PET/CT imaging with [^18F]4, with and without rimonabant blocking
T1 construct: from tissue
Experimental: Dynamic PET scans were performed for 5 month old mice with an Inveon Multimodality PET/CT scanner (Siemens Medical Solutions USA, Knoxville, Tennessee). Mice were anesthetized with 2.5% isoflurane/oxygen gas, and body temperature was maintained with a heating pad and a bubble-wrap cover. CT transmission scans were performed to correct for attenuation. PET scans were initiated in parallel with an intravenous (iv) bolus injection of [^18F]4 to the mouse tail vein (4–5 month old, n = 6, 2 females; injected radioactivity 4.0 ± 0.4 MBq; injected mass 56 ± 25 ng, 1.7 ± 0.7 μg/kg).
Dynamic emission scans were acquired for 120 min in 3D list mode, with an energy window of 350–650 keV. Scanning times were 120 min (54 frames 30 × 10 s, 15 × 60 s, 4 × 300 s, 2 × 600 s, 3 × 1200 s). The list mode data were stored in 3D sinograms. Data were reconstructed with OSEM3D/MAP software (2 OSEM3D iterations and 18 MAP iterations). The PET/CT images were preprocessed in Matlab R2017a (The MathWorks, Natick, Massachusetts) with an in-house semiautomated pipeline for preclinical images that uses SPM12 (Wellcome Department of Cognitive Neurology, London, UK) preprocessing functionalities and analysis routines. Images were first cropped to a bounding box containing the heads, and individual PET images were coregistered through a rigid-body transformation to their corresponding CT scan. Subjects were spatially normalized through a two-step registration (a rigid followed by an affine transformation) of each subject’s CT to a template CT that was previously constructed as an average of several subjects and was aligned with an atlas T2-weighted MRI template. The combination of transformations was then applied to the PET images, which were also resampled to a voxel size of 0.2 × 0.2 × 0.2 mm^3 (trilinear interpolation), matching the anatomical atlas dimensions.
Volume of interest (VOI) analysis of the whole brain, neocortex, and hippocampus was performed on each subject by averaging the signal inside a slightly modified version of the Ma et al.[40] atlas delineated VOIs, and data were obtained as standardized uptake values (SUVs). SUVs were calculated as follows: SUV = tissue activity concentration (Bq/mL)/(injected dose (Bq)/body weight (g)); it was assumed that 1 mL of tissue equals 1 g. Tissue activity and dose were decay corrected to the same time point.
as §1

mouse cerebral CB1Rs [3] = target: T1, mouse cerebral CB1Rs; assay: Ex vivo brain autoradiography with [^18F]4, region-to-thalamus ratios; type: in vivo; details: 120 min post injection
Experimental: For autoradiography, brains were further frozen and cut into 20 μm coronal cryosections for digital autoradiography, and the slices were exposed on an imaging plate (BAS-TR2025, Fuji Photo Film Co.) for approximately 2 half-lives and scanned with a Fuji BAS5000 phosphorimager (FUJIFILM Life Science, Stamford, Connecticut). Digital autoradiographic images were analyzed for count densities with the Aida 4 program (Raytest Isotopenmessgeräte GmbH, Straubenhardt, Germany). For brain slices, regions of interest (ROIs) were drawn over the parietotemporal cortex, striatum, frontal cortex, hippocampus, cerebellar gray matter, and thalamus. The autoradiography was quantified as ratios of the different ROIs relative to the thalamus, which was used as the reference region.
as §1

[4] = Radiometabolite analysis with [^18F]4 in plasma and cortex; type: in vivo, mouse; details: 120 min p.i., n = 5
Experimental: The 2 month old animals (n = 11, used only for ex vivo studies) were used for metabolite analysis. Plasma and brain samples were collected at 30 (n = 4), 60 (n = 2), and 120 min (n = 5) p.i. Plasma samples were treated with MeCN and centrifuged to remove the proteins from the solution. Brain tissue samples were treated with the 40/60 (v/v) 1% TFA (aq)/MeCN solution and then centrifuged. The supernatants were applied to HPTLC silica gel 60 RP-18 plates (Art. 1.05914.0001, Merck, Darmstadt, Germany), and the plates were developed in 40/60 (v/v) 1% TFA (aq)/ MeCN. After drying, the TLC plates were exposed to an imaging plate for approximately 4 h and the imaging plate was scanned with a Fuji Analyzer BAS5000. The amount of [^18F]4 and its radioactive metabolites were analyzed with the Aida 4 program, and the curves were fitted with GraphPad Prism 6.0 (GraphPad Software, San Diego, California) using a double exponential decay equation.

[5] = Stability / shelf life of the formulated tracer towards radiolysis; type: physicochemical; details: studied up to 5 h after the EOS, n = 2
Experimental: For tracer production for preclinical evaluation, larger amounts of initial [^18F]fluoride were used and full purification and formulation processes were performed. For the radiofluorination, the SPE method with a 30 min reaction at 160 °C was utilized (conditions as in bar 2, Figure 2B). Elution efficiency was 93 ± 2% (n = 5). Total RCY was 16.7 ± 5.7% (decay-corrected to end of bombardment, d.c. to EOB, n = 5), molar activity (Am) > 95 GBq/μmol (d.c. to end of synthesis, EOS, n = 1) and radiochemical purity (RCP) 99.9 ± 0.1% at EOS (n = 5). Activity yield was 1.0 ± 0.4 GBq (n = 5) at EOS. Synthesis time was 87 ± 5 min (n = 5). The amount of ruthenium in the formulated product was 7.8 ± 1.8 μg/mL.
For PET tracers for clinical use, a generally acknowledged limit for RCP is 95%. […] Lahdenpohja et al. reported that the RCP of [^18F]FMPEP-d2 at EOS varied between 95.5–100% and was a function of radioactivity concentration, which was 20–200 MBq/mL (n > 150) in a 10% ethanolic solution, and the RCP was declined as a function of time due to radiolytic decomposition.[32] The shelf life of the [^18F]FMPEP-d2 was determined to be 120 min.[32] For [^18F]4 formulated in a similar ethanolic solution, the RCP at EOS was 99.9% when the RAC was 200–450 MBq/mL and the shelf life was determined to be at least 300 min, with no significant development of radioactive impurities. […]

[6] = Ex vivo biodistribution with [^18F]FMPEP-d2; type: in vivo, mouse
Experimental: After iv injection of [^18F]FMPEP-d2 to the mouse tail vein, the mice were sacrificed at the following time points: 30 min (3–4 month old, n = 3, males; injected radioactivity 1.3 ± 0.3 MBq; injected mass 1.5 ± 0.5 ng), 60 min (3–4 months old, n = 4, males; injected radioactivity 1.2 ± 0.8 MBq; injected mass 1.3 ± 1.0 ng), and 120 min (1.5–6 month old, n = 12, 5 females; injected radioactivity 2.6 ± 0.8 MBq; injected mass 3.1 ± 1.1 ng). Mice were sacrificed in deep anesthesia of 4.0% isoflurane with cardiac puncture. Organs were operated in the similar manner as in the biodistribution study with [^18F]4.

[7] = parameters: method as in PMID 29909177; details: 180 min p.i.; cited from earlier work
[8] = parameters: method as in PMID 32374481; details: 10% ethanolic solution, radiolytic decomposition; cited from earlier work
CB1R [9] = tested on: CB1R; parameters: method as in PMID 29909177; details: mice, cited from earlier work
CB1R [10] = details: cited from earlier work
CB1R [11] = tested on: CB1R; parameters: method as in doi:10.1016/B978-0-12-417041-4.00002-3; details: cited from earlier work
CB1R [12] = tested on: CB1R; parameters: method as in PMID 22699528; details: cited from earlier work
[13] = 2 mg/kg rimonabant iv 10 min before tracer, 120 min after injection

T1 sequence (P47746 whole entry): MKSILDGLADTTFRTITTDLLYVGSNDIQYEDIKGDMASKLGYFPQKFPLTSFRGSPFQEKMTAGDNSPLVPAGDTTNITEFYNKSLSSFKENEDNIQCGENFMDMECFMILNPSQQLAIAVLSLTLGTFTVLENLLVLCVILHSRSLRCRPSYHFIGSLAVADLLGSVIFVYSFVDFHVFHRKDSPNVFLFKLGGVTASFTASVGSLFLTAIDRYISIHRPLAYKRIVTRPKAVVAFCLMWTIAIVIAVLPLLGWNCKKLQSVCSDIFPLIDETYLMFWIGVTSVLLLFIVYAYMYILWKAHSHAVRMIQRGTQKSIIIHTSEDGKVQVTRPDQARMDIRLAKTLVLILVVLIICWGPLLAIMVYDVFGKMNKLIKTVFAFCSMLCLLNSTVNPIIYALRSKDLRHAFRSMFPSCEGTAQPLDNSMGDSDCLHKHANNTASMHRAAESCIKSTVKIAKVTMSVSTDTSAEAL

C[C@@H](N[C@@H]1C[C@H](c2cccc([18F])c2)N(c2ccc(C(F)(F)F)cc2)C1=O)c1ccccc1 [[^18F]4, (3R,5R)-5-(3-[^18F]fluorophenyl)-3-(((R)-1-phenylethyl)amino)-1-(4-(trifluoromethyl)phenyl)pyrrolidin-2-one]
Cortex uptake ([1]; 30 min p.i.): 11.5 ± 3.7 %ID/g | Liver uptake ([1]; 30 min p.i.): 12.1 ± 0.7 %ID/g | Whole brain uptake ([1]; 30 min p.i.): 9.8 ± 3.2 %ID/g | Bone uptake (skull bone, parietal bone) ([1]; 120 min p.i.): 0.4 ± 0.1 %ID/g | Cortex uptake ([1]; 120 min p.i.): 5.1 ± 1.17 % ID/g | Liver uptake ([1]; 120 min p.i.): 8.2 ± 1.6 %ID/g | Whole brain uptake ([1]; 120 min p.i.): 4.9 ± 0.9 %ID/g | Cortex uptake in rimonabant treated mice ([1]; 120 min p.i., 2 mg/kg rimonabant pretreatment): 1.8 ± 0.2 %ID/g | Reduction of binding by rimonabant pretreatment, hippocampus (mouse cerebral CB1Rs [2]; [13]): 62% | Reduction of binding by rimonabant pretreatment, neocortex (mouse cerebral CB1Rs [2]; [13]): 59% | Reduction of binding by rimonabant pretreatment, whole brain (mouse cerebral CB1Rs [2]; [13]): 58% | Washout (mouse cerebral CB1Rs [2]; wild-type mice): washout phase began immediately after the peak uptake | SUV at 120 min p.i. (after washout) (mouse cerebral CB1Rs [2]; wild-type mice, 120 min p.i.): 1.3 | Peak standardized uptake value (SUV), hippocampus (mouse cerebral CB1Rs [2]; wild-type mice, baseline): 2.14 | Peak standardized uptake value (SUV), neocortex (mouse cerebral CB1Rs [2]; wild-type mice, baseline): 1.80 | Peak standardized uptake value (SUV), whole brain (mouse cerebral CB1Rs [2]; wild-type mice, baseline): 1.92 | Time of maximum tracer uptake after injection (mouse cerebral CB1Rs [2]; wild-type mice, brain PET): 30 min | Region-to-thalamus ratios in mice pretreated with rimonabant (mouse cerebral CB1Rs [3]; 2 mg/kg rimonabant pretreatment): ~1 | Ratio cortex and cerebellar gray matter to thalamus (mouse cerebral CB1Rs [3]; without blocking): 3.7 | Ratio frontal cortex to thalamus (mouse cerebral CB1Rs [3]; without blocking): 2.5 | Ratio globus pallidus to thalamus (mouse cerebral CB1Rs [3]; without blocking): 4.9 | Ratio parietotemporal cortex to thalamus (mouse cerebral CB1Rs [3]; without blocking): 2.3 | Ratio striatum to thalamus (mouse cerebral CB1Rs [3]; without blocking): 2.8 | Ratio whole hippocampus to thalamus (mouse cerebral CB1Rs [3]; without blocking): 2.6 | Residual tracer in plasma, of the total ^18F-radioactivity [4]: approximately 21.3 ± 3.5% | Residual tracer in the cortex, of the total ^18F-radioactivity [4]: 75.0 ± 4.3% | Stability of the formulated tracer after EOS [5]: no significant decomposition was observed

C[C@@H](N[C@@H]1C[C@H](c2cccc(OC[18F])c2)N(c2ccc(C(F)(F)F)cc2)C1=O)c1ccccc1 [[^18F]FMPEP-d2, (3R,5R)-5-(3-([^18F]fluoromethoxy)phenyl)-3-(((R)-1-phenylethyl)amino)-1-(4-(trifluoromethyl)phenyl)pyrrolidin-2-one]
Whole brain ^18F-radioactivity uptake ([6]; 30 min p.i., healthy mice): 5.6 ± 1.3 %ID/g | Skull bone (parietal bone) radioactivity uptake ([6]; 120 min p.i., healthy mice): 2.7 ± 0.5 %ID/g | Defluorination compared to [^18F]4 ([6]; at 120 min, from skull bone uptake): over 6 fold | Amount of residual tracer [7]: 86% | Shelf life [8]: 120 min | Washout (CB1R [9]; up to 90 min p.i.): essentially no washout was observed | Time of maximum tracer uptake (CB1R [9]): 30 min | Whole brain SUV (CB1R [9]): 1.5 | Washout (CB1R [10]; human studies): slow washout | CB1R vs CB2R selectivity (CB1R [11]): 3580 | Kb (CB1R [11]; for CB1R, read-out: In vitro potency (Kb)): 0.187 nM

Cc1ccc(OC(C)(C)C(=O)N[C@@H](C)[C@@H](Cc2ccc(OCC[18F])cc2)c2cccc(C#N)c2)nc1 [[^18F]MK-9470, N-{(1S,2S)-2-(3-cyanophenyl)-3-[4-(2-[^18F]fluoroethoxy)phenyl]-1-methylpropyl}-2-methyl-2-[(5-methylpyridin-2-yl)oxy]propanamide]
Time of maximum tracer uptake post injection (CB1R [12]; rat): 300 min | Washout (CB1R [12]; rats, even after 600 min): no washout was observed | Washout (CB1R [10]; human, even after 6 h): no washout was observed
